Broadly, the viability is the share of living cells, or the viability signal relative to a control. As a reminder, the cell viability is the share of living cells, or the viability signal relative to a control. Higher therefore signals better survival.

2 compounds from patent US6509377B1, “Use of a 2-hydroxy-4-trifluoromethylbenzoic acid derivatives as inhibitors of the activation of the nuclear transcription factor NF-κB” (J. Uriach & Cia, S.A., priority 1999, dated 2003) can be followed below.

Series [1] is described as follows: Cell viability of U-937 cells (EZ4U). The class given is cell-based. The conditions noted are these: human, U-937 histiocytic lymphoma cells, read-out: Percentage of cell viability. The method, then:
(§1) Several cell lines obtained from the American Type Culture Collection (ATCC) were cultured at 37° C. and under a 5% CO2 atmosphere. Each cell line was grown in an appropriate culture medium and within the exponential phase (Table I).
(§2) For the cell viability studies 24-well plates were used, where 0.5×10^6 cells/ml (for 24-hour studies), 0.25×10^6 cells/ml (for 48-hour studies) or 0.125×10^6 cells/ml (for 72-hour studies) were incubated. Next, different concentrations of HTB (1-3 mM) were added and cells were incubated for different time periods (37° C., 5% CO2). After incubation, the supernatant from each well was extracted, and cells were washed with culture medium without fetal calf serum. Then, the supernatant was extracted and 200 μl culture medium without fetal calf serum were added to each well. In addition, 20 μl substrate were added to determine cell viability. This method is based on the ability of viable cells to transform the colourless substrate into a coloured substance that is excreted to the supernatant (EZ4U, Biomedica Gmbh.). After incubating cells for 1 hour at 37° C. and 5% CO2, 200 μl supernatant were collected and the absorbance was measured at 450 nm.
(§3) The absorbance was also determined at 620 nm as a measure of the existing non-specific value.

The nature of series [2]: Cell viability of COLO 205 cells (EZ4U). It is filed as cell-based. The conditions noted are these: human, COLO 205 cells (colon adenocarcinoma), read-out: Percentage of cell viability. How it is done: as §1, §2, §3
A short description of series [3]: Cell viability of Jurkat cells (EZ4U). The class given is cell-based. The conditions noted are these: human, Jurkat cells (acute T cell leukemia), read-out: Percentage of cell viability. How it is done: as §1, §2, §3
Series [4] deals with MCP-1. Description: MCP-1 expression induced by immune complexes in THP-1 cells (ELISA). It is filed as cell-based, human. The conditions noted are these: 100 μg/ml A-IgG. The method, then: Human monocytic THP-1 cells (3×10^6 cells/well) were cultured in plastic dishes in RPMI 1640 culture medium supplemented with penicillin (100 U/ml), streptomycin (100 μg/ml), gentamycin (50 μg/ml), glutamine (2 mM) and 2% heat-inactivated fetal calf serum. Cells were cultured in the presence of HTB (2 and 4 mM) or vehicle and were activated with 100 μg/ml immune complex aggregates (A-IgG). The production of soluble MCP-1 was determined by ELISA using a commercially available kit (R&D Systems Inc.; Minneapolis, Minn.). The detection limit of the system was 5 pg/ml.
On the technique in general: An ELISA detects its analyte on a solid surface through an enzyme-linked reagent.

For series [5], the system named is human peripheral blood mononuclear cells (PBMC). Description: Cell viability controls of human PBMC (MTT assay). It is filed as cell-based. The conditions noted are these: Example 3, HTB 1-3 mM with LPS, 3 mM without LPS. How it is done: Prior to the various treatments, cell viability was determined by the Trypan Blue exclusion assay. Cells were diluted at a concentration of 2.5 million/ml with RPMI medium containing 10% fetal calf serum and were incubated (37° C., 5% CO2) 1 hour in 6-well plates (2 ml/well, 5 million PBMC) without adding any drug (control) or adding HTB (1-3 mM). Next, cells were incubated for further 10 minutes in the presence of 10 μg/ml E.coli lipopolysaccharide (LPS, 026:B6 serotype; Sigma). After incubation, a sample (100 μl) was taken in order to carry out a cell count as well as cell viability controls by measuring the ability of mitochondrial dehydrogenases to convert the soluble tetrazolium salt, MTT the insoluble product formazan (MTT assay). Cells were also incubated with HTB (3 mM) in the absence of LPS. In all cases, cell viability was equal to or higher than 95%.
Cells were diluted at a concentration of 2.5 million/ml with RPMI medium containing 10% fetal calf serum and were incubated (37° C., 5% CO2) 19 hours in 6-well plates (2 ml/well, 5 million PBMC). Incubations were carried out in the presence of 10 μg/ml E.coli lipopolysaccharide (LPS, 026:B6 serotype; Sigma) without adding any drug (control) or adding Triflusal or HTB (0.1-5 mM). Prior to incubations, cell viability controls were performed using the Trypan Blue exclusion assay. […]
On the technique in general: Formazan colour is commonly taken as a measure of viable cells.

In series [6] the test system is COX-2. Description: COX-2 expression in rat inflammatory exudate cells (carrageenan air pouch). It is filed as in vivo. Particulars: oral 3-30 mg/kg, 6 h. How it is done:
(§4) Lewis rats (175-200 g) were used in this study. Rats were randomly distributed in groups of 5 animals. An, air pouch was produced by subcutaneous injection of 20 ml of sterile air into the intrascapular area of animals in each group. Every two days, 10 ml of air were injected again into the cavity to keep the space open. Seven days after the first injection of air, 2 ml of a 1% carrageenan solution was injected into the air pouch in all groups to produce an inflammatory reaction. Test compound was administered orally 30 min before carrageenan administration. The animals were killed 6 h later and the volume of exudate was measured. The type and number of cells present were determined using standard Wright-Giemsa staining and a Coulter Counter cell counter, respectively. The exudate was centrifuged at 400 g at 4° C. for 7 min and PGE2 concentration was determined by enzyme-immunoassay (Amershan-Biotrak RPN222). The cell pellet was resuspended in 2 ml cold 0.85% NaCl. To eliminate red cell contamination, cells were subjected to a selective cellular lysis by the addition of 6 ml cold water for 20 seconds. The isotonicity of the cellular suspension was restored by the addition of 2 ml 3.5% NaCl. […]

Series [7] relates to COX-2. Description: PGE2 production in rat exudate (carrageenan air pouch). The class given is in vivo. Particulars: oral 3-30 mg/kg, 6 h. The method, then: as §4

Consider `O=C(O)c1ccc(C(F)(F)F)cc1O` [HTB, 2-hydroxy-4-trifluoromethylbenzoic acid], for which the viability at 0 h, 1 mM worked out at 100% in series [1] (1 mM HTB, 0 hours); 100% in series [2] (1 mM HTB, 0 hours); 100% in series [3] (1 mM HTB, 0 hours). In addition, the viability at 2 h, 1 mM in series [1] (1 mM HTB, 2 hours) was found to be 100%; in series [2] (1 mM HTB, 2 hours), 100%; in series [3] (1 mM HTB, 2 hours), 100%. In addition, the viability at 5 h, 1 mM in series [1] (1 mM HTB, 5 hours) is 98.8%; in series [2] (1 mM HTB, 5 hours), 87.2%; in series [3] (1 mM HTB, 5 hours), 76.8%. In addition, the viability at 24 h, 1 mM in series [1] (1 mM HTB, 24 hours) turned out to be 74.4%; in series [2] (1 mM HTB, 24 hours), 64.8%; in series [3] (1 mM HTB, 24 hours), 11.3%. Besides, the viability at 48 h, 1 mM turned out to be 39.6% in series [1] (1 mM HTB, 48 hours); 37.4% in series [2] (1 mM HTB, 48 hours); 3.6% in series [3] (1 mM HTB, 48 hours). In addition, the viability at 72 h, 1 mM stood at 4.8% in series [1] (1 mM HTB, 72 hours); 7.6% in series [2] (1 mM HTB, 72 hours); 1.6% in series [3] (1 mM HTB, 72 hours). Further, the viability at 0 h, 3 mM in series [1] (3 mM HTB, 0 hours) was 100%; in series [2] (3 mM HTB, 0 hours), 100%; in series [3] (3 mM HTB, 0 hours), 100%. In addition, the viability at 2 h, 3 mM in series [1] (3 mM HTB, 2 hours) came to 96.1%; in series [2] (3 mM HTB, 2 hours), 94.5%; in series [3] (3 mM HTB, 2 hours), 100%. Besides, the viability at 5 h, 3 mM in series [1] (3 mM HTB, 5 hours) turned out to be 92.6%; in series [2] (3 mM HTB, 5 hours) it was 69.2%; in series [3] (3 mM HTB, 5 hours) it was 62.6%. Further, the viability at 24 h, 3 mM in series [1] (3 mM HTB, 24 hours) worked out at 13.9%; in series [2] (3 mM HTB, 24 hours), 39.6%; in series [3] (3 mM HTB, 24 hours) it was 6.2%. Also, the viability at 48 h, 3 mM in series [1] (3 mM HTB, 48 hours) turned out to be 7.5%; in series [2] (3 mM HTB, 48 hours), 14.3%; in series [3] (3 mM HTB, 48 hours), 5.4%. Moreover, the “inhibition of MCP-1 expression induced by immune complexes” value in series [4] (2 mM) and in series [4] (4 mM) was “complete inhibition” in each case. This compound came in with a cell viability in series [5] of at least 95%.

Consider `CC(=O)Oc1cc(C(F)(F)F)ccc1C(=O)O` [triflusal, 2-Acetyloxy-4-trifluoromethylbenzoic acid, reference compound], for which the “inhibition of COX-2 expression in the cells present in the exudate” value in series [6] is recorded as “dose-dependently inhibits”. Moreover, the “inhibition of PGE2 production in the exudate” value in series [7] is reported as “dose-dependently inhibits”.
